The text below walks through data of patent US11840548B2, “UV-curable phosphonium small molecules as antimicrobial coatings and surface active additives” (SCI RESOURCE PLATFORM INC., priority 2020, dated 2023).

A short description of data set [1]: advancing water contact angle measurement. Format: physicochemical. Particulars: UV-cured phosphonium coating on polystyrene; triplicate. The procedure: Advancing water contact angle (θC) measurements were performed on the coated pieces to further probe the relationship between the structure of the phosphonium small molecules coated on the substrate and their macroscopic properties as coatings. Measurements for θC trend with charge density results (Table 1).
Thus, after the coating step, a pre-extrusion UV-cure process was introduced to immobilize the phosphoniums to the plastic bead surface. Extrusion of these pre-cured beads at 220° C. into a mold pre-heated to 100° C. yielded the tributylphosphonium-containing plastic PP-2, triphenylphosphonium-containing PP-3, (FIG. 8) and perfluoroalkylphosphonium-containing PP-4 as off-white coloured “dogbone” pieces. The discoloration was due to the amber or off-white natural coloring of the phosphoniums added to the melt, and not UV or heat exposure. The effect of incorporating each phosphonium at 1% was quantified by advancing WCA (Table 1). […] FIG. 1 is a schematic illustration showing a cross section of antimicrobial-enriched plastic with sub-surface phosphonium, which upon abrasion is exposed and available to combat microbial growth.

Data set [2] concerns E. coli (ATCC strain 11229). Description: large drop inoculum (LDI) test, E. coli. Format: cell-based. Particulars: UV-cured coating on polystyrene plastic; after 24 hours in contact with the surface. The text has this:
To guarantee all inoculated cells enter into contact with the test surface, […], serially diluted, plated out onto tryptic soy agar, and enumerated to assess the extent of cell survival and thus antimicrobial efficacy of the test surfaces. Arthrobacter (IAI-3) and E. coli (ATCC strain 11229) were chosen as representative Gram-positive and Gram-negative bacterial strains.
The efficacy of these materials against the representative strains of Gram-negative and Gram-positive bacteria lead us to probe the antimicrobial capability of these materials after being subject to abrasive processes, to determine whether tethered sub-surface phosphonium observed by XPS can translate to materials with antimicrobial properties after the surface has be abraded. The process of using an aqueous solution to wipe or rub away dirt or bacteria is one fundamental to sanitation,^50 and as such the solvent double rub protocol described in ASTM D5402^51 was chosen as a representative test of durability. Water was chosen as the solvent due to its ubiquity in cleaning solutions. The same extruded polypropylene samples subjected to the LDI were first rinsed with copious amounts of sterile distilled water, then vortexed for 5 minutes in saline to remove any bacterial debris from the initial test. After another rinse step, the pieces were subjected to 100 solvent double rubs on the tested side using a cotton cloth saturated with distilled water, the amount of force of each rub measured to be between 1000 g and 1600 g. After 100 double rubs, the pieces were rinsed, sterilized under UV light, and the abraded sides were subject to another loading of bacteria.

For data set [3], the system named is Arthrobacter sp. (IAI-3). The data set is described as follows: large drop inoculum (LDI) test, Arthrobacter. The data set is classed as cell-based. Particulars: UV-cured coating on polystyrene plastic; after 3 hours in contact with the surface. The procedure:
To guarantee all inoculated cells enter into contact with the test surface, the samples with the droplet are subjected to a standardized 3 h drying period. The cells are then recovered, serially diluted, plated out onto tryptic soy agar, and enumerated to assess the extent of cell survival and thus antimicrobial efficacy of the test surfaces. Arthrobacter (IAI-3) and E. coli (ATCC strain 11229) were chosen as representative Gram-positive and Gram-negative bacterial strains.

“Also recorded” adds a separate entry of the source.

Take `O=C(c1ccccc1)c1ccc(OCCC[P+](c2ccccc2)(c2ccccc2)c2ccccc2)cc1.[Br-]` [phosphonium 3]: in data set [1], the “θc, advancing water contact angle” value was determined as 63.5±5.8 deg. Further, the “reduction of viable Gram-negative E. coli cells” value in data set [2] was “full reductions”. For the same compound, the “reduction of viable Gram-positive Arthrobacter cells” value in data set [3] is “full reductions”.
For the compound `O=C(c1ccccc1)c1ccc(OCCC[P+](CCC(F)(F)C(F)(F)C(F)(F)C(F)(F)C(F)(F)C(F)(F)F)(c2ccccc2)c2ccccc2)cc1.[Br-]` [phosphonium 4], in data set [1], the “θc, advancing water contact angle” value is on record as 68.0±2.0 deg. For the same compound, the “reduction of viable Gram-negative E. coli cells” value in data set [2] was “full reductions”. Moreover, in data set [3], the “reduction of viable Gram-positive Arthrobacter cells” value is “full reductions”.
Consider `C[P+](C)(C)CCCOc1ccc(C(=O)c2ccccc2)cc1.[Br-]` [phosphonium 1], for which, in data set [1], the “θc, advancing water contact angle” value worked out at 71.9 ± 5.1 deg. Further, the “reduction of viable Gram-negative E. coli cells” value in data set [2] is listed as “failing to reduce bacterial survivability; also recorded: lack of observed antimicrobial activity”. Also, the “reduction of viable Gram-positive Arthrobacter cells” value in data set [3] is listed as “failing to reduce bacterial survivability; also recorded: lack of observed antimicrobial activity”.
With `CCCC[P+](CCCC)(CCCC)CCCOc1ccc(C(=O)c2ccccc2)cc1.[Br-]` [phosphonium 2], the “θc, advancing water contact angle” value in data set [1] was 36.4±11.0 deg. Besides, the “reduction of viable Gram-negative E. coli cells” value in data set [2] is “full reductions”. In addition, the “reduction of viable Gram-positive Arthrobacter cells” value in data set [3] is recorded as “full reductions”.
